In patent publication US10294248B2, “Beta-lactamase inhibitors” (VenatoRx Pharmaceuticals, Inc., priority 2013, dated 2019):

How the values were obtained:
[1] = biological target: T1, SHV-5 β-lactamase (Class A ESBL) (Klebsiella pneumoniae, UniProt P0A3M1); assay: β-Lactamase inhibition, SHV-5; type: biochemical
T1 construct: made in house; host or cells: E. coli BL21(DE3)
In short: (§1)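 Read-out is the rate of β-lactam ring hydrolysis monitored by absorbance: 300 nm for imipenem with KPC-2 and 260 nm for cefotaxime with SHV-5. Recombinant native enzymes were first incubated with compound at 37 °C for 15 min. The IC50 is the inhibitor concentration that halves the initial hydrolysis rate.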

[2] = biological target: T2, KPC-2 β-lactamase (Class A carbapenemase) (Klebsiella pneumoniae, UniProt Q9F663); assay: β-Lactamase inhibition, KPC-2; type: biochemical; conditions: imipenem substrate, 300 nm; 15 min preincubation at 37° C., PBS pH 7.4
T2 construct: made in house; host or cells: E. coli BL21(DE3)
T2 sequence (Q9F663 25-293, looked up): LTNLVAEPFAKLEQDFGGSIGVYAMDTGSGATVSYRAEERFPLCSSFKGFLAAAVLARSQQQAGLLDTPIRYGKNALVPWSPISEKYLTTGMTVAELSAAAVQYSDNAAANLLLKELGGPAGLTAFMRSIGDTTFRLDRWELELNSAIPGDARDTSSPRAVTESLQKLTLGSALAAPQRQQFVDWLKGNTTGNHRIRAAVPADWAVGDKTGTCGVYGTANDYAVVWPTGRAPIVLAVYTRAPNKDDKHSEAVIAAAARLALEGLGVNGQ
In short: as §1

[3] = biological target: T3, VIM-2 metallo-β-lactamase (Class B) (Pseudomonas aeruginosa, UniProt Q9K2N0); assay: β-Lactamase inhibition, VIM-2; type: biochemical; conditions: nitrocefin 100 μM, 486 nm; 15 min preincubation at 37° C., PBS pH 7.4
T3 construct: made in house; host or cells: E. coli BL21(DE3)
In short: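 Nitrocefin hydrolysis, read at 486 nm over 10 min, served as the measure of VIM-2 activity. The enzyme had been incubated with compound for 15 min at 37 °C before 100 μM substrate was added, and IC50 values were fitted from percent inhibition of the initial rate.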

[4] = biological target: T4, p99 AmpC β-lactamase (Class C) (Enterobacter cloacae, UniProt P05364); assay: β-Lactamase inhibition, p99 AmpC; type: biochemical
T4 construct: made in house; host or cells: E. coli BL21(DE3)
T4 sequence (P05364 21-381): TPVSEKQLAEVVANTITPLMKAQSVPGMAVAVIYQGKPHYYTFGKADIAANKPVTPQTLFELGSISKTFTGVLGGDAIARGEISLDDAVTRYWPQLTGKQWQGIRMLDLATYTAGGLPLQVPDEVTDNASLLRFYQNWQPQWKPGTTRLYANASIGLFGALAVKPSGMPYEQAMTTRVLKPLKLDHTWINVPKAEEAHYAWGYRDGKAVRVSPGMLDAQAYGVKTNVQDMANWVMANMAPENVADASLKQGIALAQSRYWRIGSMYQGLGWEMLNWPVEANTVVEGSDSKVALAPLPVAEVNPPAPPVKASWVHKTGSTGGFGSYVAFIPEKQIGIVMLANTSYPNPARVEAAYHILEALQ

[5] = biological target: T5, OXA-1 β-lactamase (Class D oxacillinase) (Escherichia coli, UniProt P13661); assay: β-Lactamase inhibition, OXA-1; type: biochemical; conditions: nitrocefin 100 μM, 486 nm; 15 min preincubation at 37° C., PBS pH 7.4
T5 construct: made in house; host or cells: E. coli BL21(DE3)
T5 sequence (P13661 26-276): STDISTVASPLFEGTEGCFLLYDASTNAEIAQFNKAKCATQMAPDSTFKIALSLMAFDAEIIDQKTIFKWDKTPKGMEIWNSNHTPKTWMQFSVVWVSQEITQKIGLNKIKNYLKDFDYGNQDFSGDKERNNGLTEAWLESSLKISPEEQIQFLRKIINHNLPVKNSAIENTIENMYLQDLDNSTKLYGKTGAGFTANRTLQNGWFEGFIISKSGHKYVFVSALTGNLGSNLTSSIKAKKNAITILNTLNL
In short: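 Untagged enzyme from E. coli BL21(DE3), purified by Capto S then Superdex 75; 15 min 37 °C preincubation with inhibitor; KPC-2 read with imipenem at 300 nm, SHV-5 with cefotaxime at 260 nm, OXA-1 with nitrocefin 100 μM final at 486 nm; 10 min kinetic read; IC50 vs uninhibited wells.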

[6] = tested on: E. coli ESBL4 expressing CTX-M-15; assay: Broth microdilution MIC, E. coli ESBL4 CTX-M-15; type: cell-based; conditions: fixed 4 μg/mL ceftazidime; CAMHB, 16-20 hours at 37° C.
In short: (§2)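 The MIC, judged visually after 16-20 hours at 37° C, is the lowest test-compound level stopping growth when combined with a β-lactam at a constant 4 μg/ml. Compound was titrated two-fold over 32 to 0.25 μg/ml in cation-adjusted Mueller Hinton broth.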

[7] = tested on: E. cloacae 144200 expressing Class C P99 AmpC; assay: Broth microdilution MIC, E. cloacae 144200 p99 AmpC; type: cell-based; conditions: fixed 4 μg/mL ceftazidime; CAMHB, 16-20 hours at 37° C.
In short: as §2

[8] = tested on: K. pneumoniae 156319 expressing KPC-3; assay: Broth microdilution MIC, K. pneumoniae 156319 KPC-3; type: cell-based; conditions: fixed 4 μg/mL meropenem; CAMHB, 16-20 hours at 37° C.
In short: as §2

[9] = tested on: P. aeruginosa Ps296 expressing VIM-2; assay: Broth microdilution MIC, P. aeruginosa Ps296 VIM-2; type: cell-based; conditions: fixed 4 μg/mL meropenem; CAMHB, 16-20 hours at 37° C.
In short: as §2

[10] = tested on: K. pneumoniae A-1797 expressing KPC-2 and VIM-4; assay: Broth microdilution MIC, K. pneumoniae A-1797 KPC-2/VIM-4; type: cell-based; conditions: fixed 4 μg/mL meropenem; CAMHB, 16-20 hours at 37° C.
In short: as §2

[11] = tested on: S. aureus MSSA-7 producing penicillinase PC-1; assay: Broth microdilution MIC, S. aureus MSSA-7 PC-1; type: cell-based; conditions: fixed 4 μg/mL piperacillin; CAMHB, 16-20 hours at 37° C.
In short: as §2

T1 sequence (P0A3M1 22-286): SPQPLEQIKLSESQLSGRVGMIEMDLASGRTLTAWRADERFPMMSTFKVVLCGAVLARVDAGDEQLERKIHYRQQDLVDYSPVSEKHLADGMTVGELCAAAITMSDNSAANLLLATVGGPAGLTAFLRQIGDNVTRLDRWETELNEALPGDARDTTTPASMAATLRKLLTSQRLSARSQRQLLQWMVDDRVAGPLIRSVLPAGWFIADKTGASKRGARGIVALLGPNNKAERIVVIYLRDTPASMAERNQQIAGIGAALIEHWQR

NCC1CCCN(CC(=O)N[C@H]2Cc3cccc(C(=O)O)c3OB2O)C1 (stereo partly drawn) [Example 19, 3-[2-(3-Aminomethyl-piperidin-1-yl)-acetylamino]-2-hydroxy-3,4-dihydro-2H-benzo[e][1,2]oxaborinine-8-carboxylic acid]
IC50 [1]: < 0.1 µM | IC50 [2]: 0.1 to 1 µM | IC50 [3]: 10 to 100 µM | IC50 [4]: < 0.1 µM | IC50 [5]: < 0.1 µM | MIC of example compound in presence of fixed β-lactam: Fixed CAZ, E. coli ESBL4 CTX-M-15 [6]: C (the MIC in the presence of <4 μg/mL of a β-lactamase inhibitor) | MIC of example compound in presence of fixed β-lactam: Fixed CAZ, E. cl. 144200 p99 AmpC [7]: C (the MIC in the presence of <4 μg/mL of a β-lactamase inhibitor) | MIC of example compound in presence of fixed β-lactam: Fixed Mero, K. P. 156319 KPC-3 [8]: B (the MIC in the presence of between 8 and 32 μg/mL of a β-lactamase inhibitor) | MIC of example compound in presence of fixed β-lactam: Fixed Mero, P. aerug. Ps296 VIM-2 [9]: A (an MIC of the fixed β-lactam antibiotic in the presence of >32 μg/mL of a β-lactamase inhibitor) | MIC of example compound in presence of fixed β-lactam: Fixed Mero, K. P. A-1797 KPC-2 VIM-4 [10]: A (an MIC of the fixed β-lactam antibiotic in the presence of >32 μg/mL of a β-lactamase inhibitor) | MIC of example compound in presence of fixed β-lactam: Fixed Pip, S. aureus MSSA-7 PC-1 [11]: B (the MIC in the presence of between 8 and 32 μg/mL of a β-lactamase inhibitor)

CNC1CCN(CC(=O)N[C@H]2Cc3cccc(C(=O)O)c3OB2O)CC1O (stereo partly drawn) [Example 20, 2-Hydroxy-3-[2-(3-hydroxy-4-methylamino-piperidin-1-yl)-acetylamino]-3,4-dihydro-2H-benzo[e][1,2]oxaborinine-8-carboxylic acid]
IC50 [1]: 0.1 to 1 µM | IC50 [2]: 0.1 to 1 µM | IC50 [3]: 1 to 10 µM | IC50 [4]: < 0.1 µM | IC50 [5]: < 0.1 µM | MIC of example compound in presence of fixed β-lactam: Fixed CAZ, E. coli ESBL4 CTX-M-15 [6]: C (the MIC in the presence of <4 μg/mL of a β-lactamase inhibitor) | MIC of example compound in presence of fixed β-lactam: Fixed CAZ, E. cl. 144200 p99 AmpC [7]: C (the MIC in the presence of <4 μg/mL of a β-lactamase inhibitor) | MIC of example compound in presence of fixed β-lactam: Fixed Mero, K. P. 156319 KPC-3 [8]: C (the MIC in the presence of <4 μg/mL of a β-lactamase inhibitor) | MIC of example compound in presence of fixed β-lactam: Fixed Mero, P. aerug. Ps296 VIM-2 [9]: B (the MIC in the presence of between 8 and 32 μg/mL of a β-lactamase inhibitor) | MIC of example compound in presence of fixed β-lactam: Fixed Mero, K. P. A-1797 KPC-2 VIM-4 [10]: A (an MIC of the fixed β-lactam antibiotic in the presence of >32 μg/mL of a β-lactamase inhibitor) | MIC of example compound in presence of fixed β-lactam: Fixed Pip, S. aureus MSSA-7 PC-1 [11]: C (the MIC in the presence of <4 μg/mL of a β-lactamase inhibitor)

COC1CN(CC(=O)N[C@H]2Cc3cccc(C(=O)O)c3OB2O)CCC1N (stereo partly drawn) [Example 21, 3-[2-(4-Amino-3-methoxy-piperidin-1-yl)-acetylamino]-2-hydroxy-3,4-dihydro-2H-benzo[e][1,2]oxaborinine-8-carboxylic acid]
IC50 [1]: < 0.1 µM | IC50 [2]: 0.1 to 1 µM | IC50 [3]: 1 to 10 µM | IC50 [4]: < 0.1 µM | IC50 [5]: < 0.1 µM | MIC of example compound in presence of fixed β-lactam: Fixed CAZ, E. coli ESBL4 CTX-M-15 [6]: C (the MIC in the presence of <4 μg/mL of a β-lactamase inhibitor) | MIC of example compound in presence of fixed β-lactam: Fixed CAZ, E. cl. 144200 p99 AmpC [7]: C (the MIC in the presence of <4 μg/mL of a β-lactamase inhibitor) | MIC of example compound in presence of fixed β-lactam: Fixed Mero, K. P. 156319 KPC-3 [8]: C (the MIC in the presence of <4 μg/mL of a β-lactamase inhibitor) | MIC of example compound in presence of fixed β-lactam: Fixed Mero, P. aerug. Ps296 VIM-2 [9]: B (the MIC in the presence of between 8 and 32 μg/mL of a β-lactamase inhibitor) | MIC of example compound in presence of fixed β-lactam: Fixed Mero, K. P. A-1797 KPC-2 VIM-4 [10]: A (an MIC of the fixed β-lactam antibiotic in the presence of >32 μg/mL of a β-lactamase inhibitor) | MIC of example compound in presence of fixed β-lactam: Fixed Pip, S. aureus MSSA-7 PC-1 [11]: C (the MIC in the presence of <4 μg/mL of a β-lactamase inhibitor)

NC1CCN(CCC(=O)N[C@H]2Cc3cccc(C(=O)O)c3OB2O)CC1 [Example 22, 3-[3-(4-Amino-piperidin-1-yl)-propionylamino]-2-hydroxy-3,4-dihydro-2H-benzo[e][1,2]oxaborinine-8-carboxylic acid]
IC50 [1]: 0.1 to 1 µM | IC50 [2]: 0.1 to 1 µM | IC50 [3]: 1 to 10 µM | IC50 [4]: < 0.1 µM | IC50 [5]: 0.1 to 1 µM | MIC of example compound in presence of fixed β-lactam: Fixed CAZ, E. coli ESBL4 CTX-M-15 [6]: C (the MIC in the presence of <4 μg/mL of a β-lactamase inhibitor) | MIC of example compound in presence of fixed β-lactam: Fixed CAZ, E. cl. 144200 p99 AmpC [7]: C (the MIC in the presence of <4 μg/mL of a β-lactamase inhibitor) | MIC of example compound in presence of fixed β-lactam: Fixed Mero, K. P. 156319 KPC-3 [8]: B (the MIC in the presence of between 8 and 32 μg/mL of a β-lactamase inhibitor) | MIC of example compound in presence of fixed β-lactam: Fixed Mero, P. aerug. Ps296 VIM-2 [9]: A (an MIC of the fixed β-lactam antibiotic in the presence of >32 μg/mL of a β-lactamase inhibitor) | MIC of example compound in presence of fixed β-lactam: Fixed Mero, K. P. A-1797 KPC-2 VIM-4 [10]: A (an MIC of the fixed β-lactam antibiotic in the presence of >32 μg/mL of a β-lactamase inhibitor) | MIC of example compound in presence of fixed β-lactam: Fixed Pip, S. aureus MSSA-7 PC-1 [11]: C (the MIC in the presence of <4 μg/mL of a β-lactamase inhibitor)

O=C(CCN1CCNCC1)N[C@H]1Cc2cccc(C(=O)O)c2OB1O [Example 23, 2-Hydroxy-3-(3-piperazin-1-yl-propionylamino)-3,4-dihydro-2H-benzo[e][1,2]oxaborinine-8-carboxylic acid]
IC50 [1]: < 0.1 µM | IC50 [2]: < 0.1 µM | IC50 [3]: 1 to 10 µM | IC50 [4]: < 0.1 µM | IC50 [5]: < 0.1 µM | MIC of example compound in presence of fixed β-lactam: Fixed CAZ, E. coli ESBL4 CTX-M-15 [6]: C (the MIC in the presence of <4 μg/mL of a β-lactamase inhibitor) | MIC of example compound in presence of fixed β-lactam: Fixed CAZ, E. cl. 144200 p99 AmpC [7]: C (the MIC in the presence of <4 μg/mL of a β-lactamase inhibitor) | MIC of example compound in presence of fixed β-lactam: Fixed Mero, K. P. 156319 KPC-3 [8]: C (the MIC in the presence of <4 μg/mL of a β-lactamase inhibitor) | MIC of example compound in presence of fixed β-lactam: Fixed Mero, P. aerug. Ps296 VIM-2 [9]: B (the MIC in the presence of between 8 and 32 μg/mL of a β-lactamase inhibitor) | MIC of example compound in presence of fixed β-lactam: Fixed Mero, K. P. A-1797 KPC-2 VIM-4 [10]: B (the MIC in the presence of between 8 and 32 μg/mL of a β-lactamase inhibitor) | MIC of example compound in presence of fixed β-lactam: Fixed Pip, S. aureus MSSA-7 PC-1 [11]: C (the MIC in the presence of <4 μg/mL of a β-lactamase inhibitor)

NC1CCN(CC(=O)N[C@H]2Cc3cccc(C(=O)O)c3OB2O)CC1O (stereo partly drawn) [Example 24, 3-[2-(4-Amino-3-hydroxy-piperidin-1-yl)-acetylamino]-2-hydroxy-3,4-dihydro-2H-benzo[e][1,2]oxaborinine-8-carboxylic acid]
IC50 [1]: 0.1 to 1 µM | IC50 [2]: 0.1 to 1 µM | IC50 [3]: 10 to 100 µM | IC50 [4]: < 0.1 µM | IC50 [5]: 0.1 to 1 µM | MIC of example compound in presence of fixed β-lactam: Fixed CAZ, E. coli ESBL4 CTX-M-15 [6]: C (the MIC in the presence of <4 μg/mL of a β-lactamase inhibitor) | MIC of example compound in presence of fixed β-lactam: Fixed CAZ, E. cl. 144200 p99 AmpC [7]: C (the MIC in the presence of <4 μg/mL of a β-lactamase inhibitor) | MIC of example compound in presence of fixed β-lactam: Fixed Mero, K. P. 156319 KPC-3 [8]: B (the MIC in the presence of between 8 and 32 μg/mL of a β-lactamase inhibitor) | MIC of example compound in presence of fixed β-lactam: Fixed Mero, P. aerug. Ps296 VIM-2 [9]: B (the MIC in the presence of between 8 and 32 μg/mL of a β-lactamase inhibitor) | MIC of example compound in presence of fixed β-lactam: Fixed Mero, K. P. A-1797 KPC-2 VIM-4 [10]: B (the MIC in the presence of between 8 and 32 μg/mL of a β-lactamase inhibitor) | MIC of example compound in presence of fixed β-lactam: Fixed Pip, S. aureus MSSA-7 PC-1 [11]: C (the MIC in the presence of <4 μg/mL of a β-lactamase inhibitor)
